Columns and labels:
[1] = target: T1, Alpha-2A adrenergic receptor (Homo sapiens, UniProt P08913); test: Binding affinity to alpha-2A adrenergic receptor (unknown origin) by competition binding assay
T1 sequence (P08913 whole entry): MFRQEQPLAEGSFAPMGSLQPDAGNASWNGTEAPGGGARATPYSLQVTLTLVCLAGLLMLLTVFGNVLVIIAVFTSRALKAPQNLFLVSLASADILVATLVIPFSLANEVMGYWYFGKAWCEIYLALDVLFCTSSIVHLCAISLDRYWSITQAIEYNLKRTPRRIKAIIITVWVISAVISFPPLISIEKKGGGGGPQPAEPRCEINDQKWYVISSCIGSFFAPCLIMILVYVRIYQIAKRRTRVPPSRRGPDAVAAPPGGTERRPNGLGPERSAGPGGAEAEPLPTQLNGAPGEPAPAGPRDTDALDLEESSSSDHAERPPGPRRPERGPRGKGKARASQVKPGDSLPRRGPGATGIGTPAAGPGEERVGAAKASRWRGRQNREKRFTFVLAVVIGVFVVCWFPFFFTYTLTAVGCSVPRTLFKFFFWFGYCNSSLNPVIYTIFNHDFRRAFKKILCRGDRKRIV

D(3) dopamine receptor = D(3) dopamine receptor (Homo sapiens, UniProt P35462); test: Binding affinity to D3 dopamine receptor (unknown origin) by competition binding assay
Chain of D(3) dopamine receptor (P35462 whole entry): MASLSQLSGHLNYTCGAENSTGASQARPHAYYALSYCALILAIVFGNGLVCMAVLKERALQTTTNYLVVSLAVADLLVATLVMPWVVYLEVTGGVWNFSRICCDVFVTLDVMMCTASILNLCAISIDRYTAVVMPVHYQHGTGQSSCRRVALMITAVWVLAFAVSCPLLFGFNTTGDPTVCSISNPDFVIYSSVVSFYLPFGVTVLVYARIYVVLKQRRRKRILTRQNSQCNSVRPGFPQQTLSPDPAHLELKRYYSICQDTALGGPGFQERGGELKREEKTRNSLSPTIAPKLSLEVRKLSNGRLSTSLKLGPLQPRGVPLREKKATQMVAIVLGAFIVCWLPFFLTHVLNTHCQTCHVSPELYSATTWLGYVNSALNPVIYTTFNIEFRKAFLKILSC

[2] = target: T2, Alpha-1A adrenergic receptor (Homo sapiens, UniProt P35348); test: Binding affinity to alpha-1A adrenergic receptor (unknown origin) by competition binding assay
T2 sequence (P35348 whole entry): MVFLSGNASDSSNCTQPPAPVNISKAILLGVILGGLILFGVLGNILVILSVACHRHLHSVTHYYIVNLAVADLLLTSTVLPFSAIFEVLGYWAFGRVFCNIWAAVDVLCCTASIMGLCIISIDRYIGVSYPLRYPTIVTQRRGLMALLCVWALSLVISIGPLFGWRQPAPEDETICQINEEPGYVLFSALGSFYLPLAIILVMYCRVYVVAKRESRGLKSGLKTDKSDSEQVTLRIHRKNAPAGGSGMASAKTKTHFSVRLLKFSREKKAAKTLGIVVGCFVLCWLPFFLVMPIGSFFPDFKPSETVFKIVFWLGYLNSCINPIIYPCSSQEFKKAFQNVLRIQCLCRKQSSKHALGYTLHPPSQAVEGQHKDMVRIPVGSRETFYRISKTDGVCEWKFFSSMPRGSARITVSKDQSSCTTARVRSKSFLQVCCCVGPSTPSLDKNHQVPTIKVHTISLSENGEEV

[3] = target: 5-hydroxytryptamine receptor 6 (Homo sapiens, UniProt P50406); test: Binding affinity to 5-HT 6 (unknown origin) by competition binding assay
Chain of 5-hydroxytryptamine receptor 6 (P50406 whole entry): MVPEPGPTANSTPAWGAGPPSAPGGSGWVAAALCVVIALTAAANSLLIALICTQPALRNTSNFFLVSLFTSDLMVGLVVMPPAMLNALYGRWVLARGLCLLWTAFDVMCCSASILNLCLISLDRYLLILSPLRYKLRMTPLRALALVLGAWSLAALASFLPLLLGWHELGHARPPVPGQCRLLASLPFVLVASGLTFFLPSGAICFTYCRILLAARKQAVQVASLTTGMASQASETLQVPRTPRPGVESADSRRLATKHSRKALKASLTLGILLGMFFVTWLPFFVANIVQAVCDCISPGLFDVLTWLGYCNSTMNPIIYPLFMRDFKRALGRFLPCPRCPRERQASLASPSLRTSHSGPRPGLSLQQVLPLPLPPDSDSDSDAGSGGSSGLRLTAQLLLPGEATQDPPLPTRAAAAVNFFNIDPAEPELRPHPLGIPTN

[4] = target: T3, 5-hydroxytryptamine receptor 2C (Homo sapiens, UniProt P28335); test: Binding affinity to 5-HT 2C (unknown origin) by competition binding assay
T3 sequence (P28335 whole entry): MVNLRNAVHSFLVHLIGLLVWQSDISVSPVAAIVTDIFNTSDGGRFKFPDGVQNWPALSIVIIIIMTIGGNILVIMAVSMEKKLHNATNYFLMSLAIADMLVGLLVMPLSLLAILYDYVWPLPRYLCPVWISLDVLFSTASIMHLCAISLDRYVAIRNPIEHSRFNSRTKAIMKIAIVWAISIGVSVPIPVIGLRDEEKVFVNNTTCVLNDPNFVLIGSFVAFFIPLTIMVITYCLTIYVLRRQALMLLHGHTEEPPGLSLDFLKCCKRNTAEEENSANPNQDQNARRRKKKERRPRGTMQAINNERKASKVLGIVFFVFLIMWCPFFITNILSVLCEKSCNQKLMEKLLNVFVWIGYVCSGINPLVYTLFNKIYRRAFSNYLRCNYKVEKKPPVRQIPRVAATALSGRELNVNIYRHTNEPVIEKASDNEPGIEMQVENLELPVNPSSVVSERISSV

[5] = target: Sodium-dependent noradrenaline transporter (Homo sapiens, UniProt P23975); test: Binding affinity to NET (unknown origin) by competition binding assay
Chain of Sodium-dependent noradrenaline transporter (P23975 whole entry): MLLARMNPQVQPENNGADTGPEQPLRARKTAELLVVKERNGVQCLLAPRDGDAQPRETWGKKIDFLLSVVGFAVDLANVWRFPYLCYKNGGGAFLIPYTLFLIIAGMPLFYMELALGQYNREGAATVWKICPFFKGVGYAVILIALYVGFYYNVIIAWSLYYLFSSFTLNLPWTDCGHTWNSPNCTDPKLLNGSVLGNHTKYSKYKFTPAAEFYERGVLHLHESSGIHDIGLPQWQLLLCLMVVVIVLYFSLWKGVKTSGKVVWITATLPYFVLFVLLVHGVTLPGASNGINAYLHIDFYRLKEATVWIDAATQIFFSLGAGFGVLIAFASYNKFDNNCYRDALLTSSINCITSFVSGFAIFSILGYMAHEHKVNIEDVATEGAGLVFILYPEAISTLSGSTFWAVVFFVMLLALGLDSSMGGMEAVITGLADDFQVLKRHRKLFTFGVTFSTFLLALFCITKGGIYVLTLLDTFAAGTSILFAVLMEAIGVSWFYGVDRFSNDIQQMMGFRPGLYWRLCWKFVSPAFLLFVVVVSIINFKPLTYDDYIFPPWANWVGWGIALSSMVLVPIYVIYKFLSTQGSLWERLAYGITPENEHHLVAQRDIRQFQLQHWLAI

Histamine H1 receptor = Histamine H1 receptor (Homo sapiens, UniProt P35367); test: Binding affinity to histamine H1 receptor (unknown origin) by competition binding assay
Chain of Histamine H1 receptor (P35367 whole entry): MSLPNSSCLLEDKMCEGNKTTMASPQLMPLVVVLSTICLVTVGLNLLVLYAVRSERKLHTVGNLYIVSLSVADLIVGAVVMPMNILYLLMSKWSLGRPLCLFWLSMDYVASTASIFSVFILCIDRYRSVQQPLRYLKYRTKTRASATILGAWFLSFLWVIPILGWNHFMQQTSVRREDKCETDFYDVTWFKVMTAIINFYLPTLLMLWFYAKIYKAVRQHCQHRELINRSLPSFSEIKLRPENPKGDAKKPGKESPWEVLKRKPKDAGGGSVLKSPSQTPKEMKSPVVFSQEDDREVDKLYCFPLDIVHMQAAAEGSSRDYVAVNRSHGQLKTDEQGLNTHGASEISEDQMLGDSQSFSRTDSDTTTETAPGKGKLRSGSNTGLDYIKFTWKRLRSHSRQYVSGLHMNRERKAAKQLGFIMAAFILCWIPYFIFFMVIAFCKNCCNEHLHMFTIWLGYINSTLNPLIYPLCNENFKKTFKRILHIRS

[6] = target: Sodium-dependent serotonin transporter (Homo sapiens, UniProt P31645); test: Binding affinity to SERT (unknown origin) by competition binding assay
Chain of Sodium-dependent serotonin transporter (P31645 whole entry): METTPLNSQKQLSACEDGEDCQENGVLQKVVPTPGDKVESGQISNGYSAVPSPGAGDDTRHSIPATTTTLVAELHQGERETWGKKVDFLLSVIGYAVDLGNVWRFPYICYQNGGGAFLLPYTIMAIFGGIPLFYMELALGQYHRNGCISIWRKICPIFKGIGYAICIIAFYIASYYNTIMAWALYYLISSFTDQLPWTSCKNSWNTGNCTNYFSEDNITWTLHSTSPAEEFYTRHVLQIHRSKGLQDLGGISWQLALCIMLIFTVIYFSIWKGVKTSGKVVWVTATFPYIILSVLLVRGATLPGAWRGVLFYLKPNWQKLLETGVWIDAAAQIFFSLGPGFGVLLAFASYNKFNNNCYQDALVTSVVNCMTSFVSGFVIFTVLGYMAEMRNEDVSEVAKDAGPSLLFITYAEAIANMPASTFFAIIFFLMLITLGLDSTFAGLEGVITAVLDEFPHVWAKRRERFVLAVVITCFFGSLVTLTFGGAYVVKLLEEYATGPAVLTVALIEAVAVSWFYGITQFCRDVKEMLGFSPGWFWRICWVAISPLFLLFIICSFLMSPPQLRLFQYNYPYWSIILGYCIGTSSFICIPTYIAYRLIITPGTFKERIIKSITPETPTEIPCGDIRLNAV

[7] = target: T4, Alpha-1D adrenergic receptor (Homo sapiens, UniProt P25100); test: Binding affinity to alpha-1D adrenergic receptor (unknown origin) by competition binding assay
T4 sequence (P25100 whole entry): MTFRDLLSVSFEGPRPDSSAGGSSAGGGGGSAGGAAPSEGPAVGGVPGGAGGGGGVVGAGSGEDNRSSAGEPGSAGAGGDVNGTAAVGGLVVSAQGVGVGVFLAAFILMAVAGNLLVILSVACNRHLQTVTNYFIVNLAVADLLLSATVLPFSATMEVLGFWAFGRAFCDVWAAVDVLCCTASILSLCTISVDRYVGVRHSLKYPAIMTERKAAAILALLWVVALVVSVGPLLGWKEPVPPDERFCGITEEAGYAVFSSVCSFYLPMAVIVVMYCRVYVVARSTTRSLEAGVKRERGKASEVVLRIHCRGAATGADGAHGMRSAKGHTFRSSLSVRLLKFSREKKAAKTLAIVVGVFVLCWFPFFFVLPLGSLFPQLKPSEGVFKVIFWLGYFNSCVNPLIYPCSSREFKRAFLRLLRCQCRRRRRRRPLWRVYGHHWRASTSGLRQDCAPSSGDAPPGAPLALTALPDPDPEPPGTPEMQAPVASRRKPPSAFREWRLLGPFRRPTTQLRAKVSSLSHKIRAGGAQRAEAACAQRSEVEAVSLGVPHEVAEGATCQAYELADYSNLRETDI

[8] = target: 5-hydroxytryptamine receptor 1E (Homo sapiens, UniProt P28566); test: Binding affinity to 5-HT 1E (unknown origin) by competition binding assay
Chain of 5-hydroxytryptamine receptor 1E (P28566 whole entry): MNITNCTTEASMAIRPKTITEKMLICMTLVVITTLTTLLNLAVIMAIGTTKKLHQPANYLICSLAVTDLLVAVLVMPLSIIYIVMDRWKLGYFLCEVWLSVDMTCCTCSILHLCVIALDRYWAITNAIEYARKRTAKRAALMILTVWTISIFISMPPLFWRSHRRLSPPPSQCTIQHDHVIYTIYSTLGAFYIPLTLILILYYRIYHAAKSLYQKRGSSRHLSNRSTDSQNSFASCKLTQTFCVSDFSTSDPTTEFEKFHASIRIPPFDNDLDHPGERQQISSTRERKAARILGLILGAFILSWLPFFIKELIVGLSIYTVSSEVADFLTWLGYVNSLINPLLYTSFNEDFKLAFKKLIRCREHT

[9] = target: T5, 5-hydroxytryptamine receptor 1A (Homo sapiens, UniProt P08908); test: Binding affinity to 5-HT 1A (unknown origin) by competition binding assay
T5 sequence (P08908 whole entry): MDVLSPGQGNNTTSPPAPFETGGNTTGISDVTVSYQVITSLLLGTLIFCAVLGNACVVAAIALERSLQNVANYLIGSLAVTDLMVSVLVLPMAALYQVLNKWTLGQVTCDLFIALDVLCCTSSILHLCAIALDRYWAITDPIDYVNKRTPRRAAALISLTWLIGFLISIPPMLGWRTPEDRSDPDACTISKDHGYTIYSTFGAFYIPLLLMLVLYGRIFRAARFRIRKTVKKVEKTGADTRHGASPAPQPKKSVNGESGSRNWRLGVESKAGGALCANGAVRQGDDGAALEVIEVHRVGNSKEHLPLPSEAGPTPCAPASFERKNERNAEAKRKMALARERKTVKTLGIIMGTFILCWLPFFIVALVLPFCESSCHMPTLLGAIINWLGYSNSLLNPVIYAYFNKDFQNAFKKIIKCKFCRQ

| SMILES | Ki ([1]; read-out: Ki) | Ki ([1]; read-out: pKi (converted)) | Ki (D(3) dopamine receptor) | Ki [2] | Ki ([3]; read-out: Ki) | Ki ([3]; read-out: pKi (converted)) | Ki ([4]; read-out: Ki) | Ki ([4]; read-out: pKi (converted)) | Ki [5] | Ki (Histamine H1 receptor; read-out: Ki) | Ki (Histamine H1 receptor; read-out: pKi (converted)) | Ki [6] | Ki [7] | Ki ([8]; read-out: Ki) | Ki ([8]; read-out: pKi (converted)) | Ki ([9]; read-out: Ki) | Ki ([9]; read-out: pKi (converted)) | pKi [5] |
| --- | --- | --- | --- | --- | --- | --- | --- | --- | --- | --- | --- | --- | --- | --- | --- | --- | --- | --- |
| C=CCN(CC=C)CCc1c[nH]c2ccccc12 | < 10000 nM | 123 nM | 676 nM | 1660 nM | < 10000 nM | 1740 nM | < 10000 nM | 389 nM | 1000 nM | < 10000 nM | 126 nM | 151 nM | < 10000 nM | < 10000 nM | 380 nM | < 10000 nM | 100 nM | – |
| C=CCN(CC=C)CCc1c[nH]c2ccc(C)cc12 | < 10000 nM | 195 nM | 692 nM | 1260 nM | < 10000 nM | 741 nM | < 10000 nM | 316 nM | – | < 10000 nM | 676 nM | 363 nM | < 10000 nM | < 10000 nM | 490 nM | < 10000 nM | 31.6 nM | > 5 |

Source: ChEMBL document CHEMBL3751848, “Receptor binding profiles and quantitative structure-affinity relationships of some 5-substituted-N,N-diallyltryptamines” (Bioorg Med Chem Lett, 2016)
